In ChEMBL document CHEMBL1149997, “Anti-HIV activity of quassinoids” (Bioorg Med Chem Lett, 1996):

What was measured:
[1] = system: Human immunodeficiency virus 1; assay: Inhibition of HIV-1 replication in H9 lymphocytic cells.; assay type: functional, organism-based; details: Human immunodeficiency virus 1, H9
[2] = system: H9; assay: Cytotoxicity against H9 lymphocytic cells.; assay type: functional, cell-based; details: Homo sapiens
[3] = Therapeutic index expressed as the ratio of IC50 to EC50.; details: read-out: Therapeutic index
[4] = system: H9; assay: Compound was tested for inhibitory activity against HIV replication in H9 lymphocytic cells; Toxic at all concentrations; assay type: functional, cell-based, Homo sapiens
[5] = system: H9; assay: Compound was tested for cytotoxicity against H9 lymphocytic cells; Toxic at all concentrations; assay type: functional, cell-based, Homo sapiens
[6] = system: H9; assay: Compound was tested for inhibitory activity against HIV replication in H9 lymphocytic cells; No effect; assay type: functional, cell-based, Homo sapiens
[7] = Therapeutic index expressed as the ratio of IC50 to EC50; No effect

Q: For CC(=O)O[C@@H]1C(=O)[C@H](C)[C@@H]2CC(=O)O[C@@H]3C[C@H]4[C@H](C)CC(O)C(=O)[C@]4(C)[C@@H]1[C@@]32C (some centres not stated), which EC50 [1] is on record?
A: Its EC50 is 246 µM.

Q: What about the IC50 [2] of the same compound?
A: The IC50 was greater than 246 µM.

Q: What about the selectivity ratio [3] of the same compound?
A: Its selectivity ratio is greater than 1.

Q: With CC1=CC(=O)[C@@H](O)[C@@]2(C)C1C[C@H]1OC(=O)C[C@H]3[C@H](C)[C@H](O)C(=O)[C@@H]2[C@@]13CO (some centres not stated) as the compound, how does the EC50 [1] read?
A: Its EC50 is 10.6 µM.

Q: What about the IC50 [2] of the same compound?
A: Its IC50 is greater than 264 µM.

Q: And the selectivity ratio [3]?
A: Its selectivity ratio is greater than 25.

Q: What does the source list for C=C1[C@@H](O)[C@]2(O)OC[C@@]34[C@H]1[C@@H](OC(=O)C(C)(O)CC)C(=O)O[C@@H]3C[C@H]1C(C)=CC(=O)[C@@H](O)[C@]1(C)[C@@H]24 (some centres not stated)?
A: EC50 [4]: Toxic at all concentrations; IC50 [5]: Toxic at all concentrations

Q: Which results are given for COC(=O)C(C)[C@@H]1CC(=O)O[C@@H]2C[C@H]3C(C)=CC(=O)[C@@H](O)[C@]3(C)[C@H]3C(=O)OC[C@]321 (some centres not stated) [AILANTINOL A]?
A: EC50 [1]: 30 µM; IC50 [2]: > 246 µM; selectivity ratio [3]: > 8.2

Q: Which results are given for C[C@@H]1C[C@H](O)C(=O)[C@]2(C)[C@H]3[C@H](O)C(=O)[C@H](C)[C@@H]4CC(=O)O[C@H](C[C@@H]12)[C@]34C [AMAROLIDE]?
A: EC50 [1]: 179 µM; IC50 [2]: > 275 µM; selectivity ratio [3]: > 1.5

Q: What does the source list for COC(=O)[C@@]12OC[C@]34[C@H]([C@@H](O)[C@@H]1O)[C@@]1(C)C=C(O[C@@H]5O[C@H](CO)[C@@H](O)[C@H](O)[C@H]5O)C(=O)[C@@H](C)[C@@H]1C[C@H]3OC(=O)[C@H](OC(=O)C=C(C)C)[C@@H]24 [BRUCEOSIDE A]?
A: EC50 [1]: 29 µM; IC50 [2]: 29 µM; selectivity ratio [3]: 1

Q: Which results are given for COC(=O)[C@@]12OC[C@]34[C@H](OC(=O)C[C@@H]13)[C@H](OC(=O)C=C(C)C)[C@H]1C(C)=C(O[C@@H]3O[C@H](CO)[C@@H](O)[C@H](O)[C@H]3O)C(=O)C[C@]1(C)[C@H]4[C@@H](O)[C@@H]2O [BRUCEOSIDE C]?
A: EC50 [6]: Not Active; IC50 [2]: 44 µM; Therapeutic index [7]: Not Active

Q: For CC(C)=CC(=O)O[C@H]1C(=O)O[C@@H]2C[C@H]3[C@H](C)C(=O)C(O[C@@H]4O[C@H](CO)[C@@H](O)[C@H](O)[C@H]4O)=C[C@]3(C)[C@H]3[C@@H](O)[C@H](O)[C@]4(C(=O)O)OC[C@]32[C@@H]14 [BRUCEOSIDE D], which EC50 [6] is on record?
A: The EC50 was “Not Active”.

Q: What about the IC50 [2] of the same compound?
A: The IC50 was 52 µM.

Q: And the Therapeutic index [7]?
A: Its Therapeutic index is “Not Active”.

Q: Which results are given for CC(C)CC(=O)O[C@H]1C(=O)O[C@@H]2C[C@H]3[C@H](C)C(=O)C(O[C@@H]4O[C@H](CO)[C@@H](O)[C@H](O)[C@H]4O)=C[C@]3(C)[C@H]3[C@@H](O)[C@H](O)[C@]4(C(=O)O)OC[C@]32[C@@H]14 [BRUCEOSIDE E]?
A: EC50 [1]: 74 µM; IC50 [2]: 59 µM; selectivity ratio [3]: 0.8

Q: For COC(=O)[C@]12OC[C@]34[C@H]([C@@H](O)[C@@H]1O)[C@@]1(C)C(=O)C(O[C@@H]5O[C@H](CO)[C@@H](O)[C@H](O)[C@H]5O)=C[C@@H](C)[C@@H]1C[C@H]3OC(=O)[C@H](OC(=O)/C=C(\C)C(C)(C)OC(C)=O)[C@@H]24 [Bruceantinoside C], which EC50 [1] is on record?
A: The EC50 was 46 µM.

Q: And the IC50 [2]?
A: The IC50 was 26 µM.

Q: What about the selectivity ratio [3] of the same compound?
A: The selectivity ratio was 0.6.

Q: For COC(=O)[C@]12OC[C@]34[C@H]([C@@H](O)[C@@H]1O)[C@@]1(C)C=C(O[C@@H]5O[C@H](CO)[C@@H](O)[C@H](O)[C@H]5O)C(=O)[C@@H](C)[C@@H]1C[C@H]3OC(=O)[C@H](OC(=O)/C=C(\C)C(C)C)[C@@H]24 [Bruceantinoside-A], which EC50 [6] is on record?
A: The EC50 was “Not Active”.

Q: What about the IC50 [2] of the same compound?
A: Its IC50 is 4 µM.

Q: And the Therapeutic index [7]?
A: Its Therapeutic index is “Not Active”.

Q: Which EC50 [1] does the source give for COC(=O)[C@]12OC[C@]34[C@H]([C@@H](O)[C@@H]1O)[C@@]1(C)CC(=O)C(O[C@@H]5O[C@H](CO)[C@@H](O)[C@H](O)[C@H]5O)=C(C)[C@@H]1C[C@H]3OC(=O)[C@H](OC(=O)C=C(C)C)[C@@H]24 [Bruceoside-B] here?
A: The EC50 was 3 µM.

Q: And the IC50 [2]?
A: The IC50 was 3 µM.

Q: And the selectivity ratio [3]?
A: The selectivity ratio was 1.

Q: What does the source list for CC(=O)OC(C)(C)/C(C)=C/C(=O)O[C@H]1C(=O)O[C@@H]2C[C@H]3[C@H](C)C(=O)C(O[C@@H]4O[C@H](CO)[C@@H](O)[C@H](O)[C@H]4O)=C[C@]3(C)[C@H]3[C@@H](O)[C@H](O)[C@@]4(C(=O)O)OC[C@]32[C@@H]14 [Bruceoside-F]?
A: EC50 [1]: 112 µM; IC50 [2]: > 132 µM; selectivity ratio [3]: > 1.2

Q: Which results are given for CC1=CC(=O)[C@@H](O)[C@]2(C)[C@H]3[C@@]4(O)C(=O)OC[C@@]35[C@@H](C[C@@H]12)OC(=O)C[C@H]5[C@H]4C [SHINJUDILACTONE]?
A: EC50 [1]: 43 µM; IC50 [2]: > 266 µM; selectivity ratio [3]: > 6.2

Q: Which EC50 [1] does the source give for C=C1[C@H](O)[C@]2(O)OC[C@]34[C@H]2[C@@]2(C)[C@H](O)[C@@H](O)C=C(C)[C@@H]2C[C@H]3OC(=O)C[C@@H]14 [SHINJULACTONE A] here?
A: The EC50 was 5 µM.

Q: What about the IC50 [2] of the same compound?
A: Its IC50 is 5 µM.

Q: What about the selectivity ratio [3] of the same compound?
A: Its selectivity ratio is 1.

Q: What does the source list for COC(=O)[C@]12OC[C@]34[C@H]([C@@H](O)[C@@H]1O)[C@@]1(C)C=C(O[C@@H]5O[C@H](CO)[C@@H](O)[C@H](O)[C@H]5O)C(=O)[C@@H](C)[C@@H]1C[C@H]3OC(=O)[C@H](OC(=O)/C=C(\C)C(C)(C)O)[C@@H]24 [YADANZIOSIDE C]?
A: EC50 [6]: Not Active; IC50 [2]: 55 µM; Therapeutic index [7]: Not Active

Q: With COC(=O)[C@]12OC[C@]34[C@H]([C@@H](O)[C@@H]1O)[C@@]1(C)C=C(O[C@@H]5O[C@H](CO)[C@@H](O)[C@H](O)[C@H]5O)C(=O)[C@@H](C)[C@@H]1C[C@H]3OC(=O)[C@H](OC(C)=O)[C@@H]24 [YADANZIOSIDE F] as the compound, how does the EC50 [1] read?
A: The EC50 was 109 µM.

Q: And the IC50 [2]?
A: The IC50 was 156 µM.

Q: What about the selectivity ratio [3] of the same compound?
A: Its selectivity ratio is 1.4.

Q: Which EC50 [6] does the source give for COC(=O)[C@@]12OC[C@]34[C@H]([C@@H](O)[C@@H]1O)[C@@]1(C)C=C(O[C@@H]5O[C@H](CO)[C@@H](O)[C@H](O)[C@H]5O)C(=O)[C@@H](C)[C@@H]1C[C@H]3OC(=O)[C@H](OC(=O)c1ccccc1)[C@@H]24 [YADANZIOSIDE-M] here?
A: The EC50 was “Not Active”.

Q: What about the IC50 [2] of the same compound?
A: The IC50 was 7 µM.

Q: What about the Therapeutic index [7] of the same compound?
A: The Therapeutic index was “Not Active”.

Q: With COC(=O)[C@]12OC[C@]34[C@H]([C@@H](O)[C@@H]1O)[C@@]1(C)C=C(O[C@@H]5O[C@H](CO)[C@@H](O)[C@H](O)[C@H]5O)C(=O)[C@@H](C)[C@@H]1C[C@H]3OC(=O)[C@H](OC(=O)CC(C)C)[C@@H]24 [Yadanzioside A] as the compound, how does the EC50 [1] read?
A: The EC50 was 110 µM.

Q: And the IC50 [2]?
A: The IC50 was 146 µM.

Q: What about the selectivity ratio [3] of the same compound?
A: Its selectivity ratio is 1.3.

Q: For COC(=O)[C@]12OC[C@]34[C@H]([C@@H](O)[C@@H]1O)[C@@]1(C)CC(=O)C(O[C@@H]5O[C@H](CO)[C@@H](O)[C@H](O)[C@H]5O)=C(C)[C@@H]1C[C@H]3OC(=O)[C@H](OC(=O)CC(C)C)[C@@H]24 [Yadanzioside B], which EC50 [1] is on record?
A: The EC50 was 5 µM.

Q: And the IC50 [2]?
A: Its IC50 is 4 µM.

Q: And the selectivity ratio [3]?
A: The selectivity ratio was 0.8.

Q: For COC(=O)[C@]12OC[C@]34[C@H]([C@@H](O)[C@@H]1O)[C@@]1(C)[C@H](O)[C@H](O[C@@H]5O[C@H](CO)[C@@H](O)[C@H](O)[C@H]5O)C=C(C)[C@@H]1C[C@H]3OC(=O)[C@H](OC(=O)C=C(C)C)[C@@H]24 [Yadanzioside E], which EC50 [6] is on record?
A: Its EC50 is “Not Active”.

Q: What about the IC50 [2] of the same compound?
A: The IC50 was 29 µM.

Q: And the Therapeutic index [7]?
A: The Therapeutic index was “Not Active”.

Q: With COC(=O)[C@]12OC[C@]34[C@H]([C@@H](O)[C@@H]1O)[C@@]1(C)C=C(O[C@@H]5O[C@H](CO)[C@@H](O)[C@H](O)[C@H]5O)C(=O)[C@@H](C)[C@@H]1C[C@H]3OC(=O)[C@H](OC(=O)/C=C(\C)C(C)(C)OC(C)=O)[C@@H]24 [Yadanzioside G] as the compound, how does the EC50 [1] read?
A: The EC50 was 23 µM.

Q: And the IC50 [2]?
A: The IC50 was 37 µM.

Q: What about the selectivity ratio [3] of the same compound?
A: The selectivity ratio was 1.6.

Q: What does the source list for COC(=O)[C@]12OC[C@]34[C@H]([C@@H](O)[C@@H]1O)[C@@]1(C)CC(=O)C(O[C@@H]5O[C@H](CO)[C@@H](O)[C@H](O)[C@H]5O)=C(C)[C@@H]1C[C@H]3OC(=O)[C@H](OC(=O)/C=C(\C)C(C)(C)O)[C@@H]24 [Yadanzioside L]?
A: EC50 [1]: 5 µM; IC50 [2]: 10 µM; selectivity ratio [3]: 2

Q: Which results are given for COC(=O)[C@]12OC[C@]34[C@H]([C@@H](O)[C@@H]1O)[C@@]1(C)C(=O)C(O[C@@H]5O[C@H](CO)[C@@H](O)[C@H](O)[C@H]5O)=C[C@@H](C)[C@@H]1C[C@H]3OC(=O)[C@H](OC(=O)/C=C(\C)C(C)C)[C@@H]24 [Yadanzioside N]?
A: EC50 [6]: Not Active; IC50 [2]: 49 µM; Therapeutic index [7]: Not Active

Q: Which results are given for COC(=O)[C@]12OC[C@]34[C@H]([C@@H](O)[C@@H]1O)[C@@]1(C)CC(=O)C(O[C@@H]5O[C@H](CO)[C@@H](O)[C@H](O)[C@H]5O)=C(C)[C@@H]1C[C@H]3OC(=O)[C@H](OC(=O)/C=C(\C)C(C)C)[C@@H]24 [Yadanzioside P]?
A: EC50 [1]: 18 µM; IC50 [2]: 18 µM; selectivity ratio [3]: 1

Q: Which EC50 [1] does the source give for Nc1ccn([C@H]2CC[C@@H](CO)O2)c(=O)n1 [ZALCITABINE] here?
A: Its EC50 is 0.03 µM.

Q: And the IC50 [2]?
A: The IC50 was 500 µM.

Q: What about the selectivity ratio [3] of the same compound?
A: Its selectivity ratio is 16700.
